Results from patent US20260200926A1, “TREM2 MODULATORS” (Muna Therapeutics ApS, priority 2022, published 2026).

Biological target: T1, Human TREM2 (Homo sapiens, UniProt Q9NZC2)
T1 construct: expressed in transfected cells
Assay: Human TREM2 activity: cellular phosphorylation of Syk (AlphaLISA SureFire Ultra p-SYK) in HEK293/DAP12+TREM2 stable cell line
Type: cell-based
Conditions: for Emax: HEK293, maximal response relative to reference agonist example 1B (remaining examples), read-out: Emax; for EC50: phospho-Syk AlphaLISA signal, HEK293/DAP12+TREM2 cells, concentration giving 50% of maximal response, read-out: EC50
In short: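 The read-out was p-Syk (Tyr525/526), measured by AlphaLISA in lysates of a stable HEK293/DAP12+TREM2 clone. Cells (10,000/well, plated the day before) received compound for 30 min at 37 °C. Dosing used 8 points in quadruplicate, top 100 μM with 1:6 dilution, 0.5% final DMSO.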

T1 sequence (Q9NZC2 19-230): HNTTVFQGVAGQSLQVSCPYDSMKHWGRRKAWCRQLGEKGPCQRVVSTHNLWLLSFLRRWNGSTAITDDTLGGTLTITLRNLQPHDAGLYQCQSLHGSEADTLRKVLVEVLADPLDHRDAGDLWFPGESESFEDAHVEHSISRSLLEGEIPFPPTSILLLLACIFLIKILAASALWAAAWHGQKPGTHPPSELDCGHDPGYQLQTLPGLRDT
T1 sequence (O43914 22-113 partner): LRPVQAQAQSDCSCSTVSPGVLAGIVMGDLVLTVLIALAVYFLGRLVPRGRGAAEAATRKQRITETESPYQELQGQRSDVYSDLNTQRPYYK

| SMILES | Emax [%] | EC50 [nM] |
| --- | --- | --- |
| Cc1nc2c(-c3ccc(Cl)cc3F)nc(N3CCOC(c4ncc[nH]4)C3)nc2c(=O)n1C (stereo not drawn) [Example 81, 6-(2-(1H-imidazol-2-yl)morpholino)-8-(4-chloro-2-fluorophenyl)-2,3-dimethylpyrimido[5,4-d]pyrimidin-4(3H)-one] | < 75 | > 1000 |
| Cc1nc2c(-c3ccc(Cl)cc3F)nc(N3CCOC(c4cn(C)cn4)C3)nc2c(=O)n1C (stereo not drawn) [Example 82, 8-(4-chloro-2-fluorophenyl)-2,3-dimethyl-6-(2-(1-methyl-1H-imidazol-4-yl)morpholino)pyrimido[5,4-d]pyrimidin-4(3H)-one] | 75 to 110 | > 1000 |
| Cc1nc2c(-c3ccc(Cl)cc3F)nc(N3CCc4cncnc4CC3)nc2c(=O)n1C [Example 83, 8-(4-chloro-2-fluorophenyl)-2,3-dimethyl-6-(5,6,8,9-tetrahydro-7H-pyrimido[4,5-d]azepin-7-yl)pyrimido[5,4-d]pyrimidin-4(3H)-one] | < 75 | > 1000 |
| Cc1cnccc1OC1CCN(c2nc(-c3ccc(Cl)cc3F)c3nc(C)n(C)c(=O)c3n2)CC1 [Example 84, 8-(4-chloro-2-fluorophenyl)-2,3-dimethyl-6-(4-((3-methylpyridin-4-yl)oxy)piperidin-1-yl)pyrimido[5,4-d]pyrimidin-4(3H)-one] | < 75 | 100 to 1000 |
| Cc1nc2c(-c3ccc(Cl)cc3F)nc(N3CCOC4(CCc5ccccc54)C3)nc2c(=O)n1C (stereo not drawn) [Example 85, 8-(4-chloro-2-fluorophenyl)-6-(2,3-dihydrospiro[indene-1,2′-morpholin]-4′-yl)-2,3-dimethylpyrimido[5,4-d]pyrimidin-4(3H)-one] | < 75 | > 1000 |
| Cc1nc2c(-c3ccc(Cl)cc3F)nc(N3CCCc4ccncc4C3)nc2c(=O)n1C [Example 86, 8-(4-chloro-2-fluorophenyl)-2,3-dimethyl-6-(5,6,7,9-tetrahydro-8H-pyrido[3,4-c]azepin-8-yl)pyrimido[5,4-d]pyrimidin-4(3H)-one] | < 75 | > 1000 |
| Cc1nc2c(C3CCNCC3)nc(N3CCOC(c4cnn(C)c4)C3)nc2c(=O)n1C (stereo not drawn) [Example 87, 2,3-dimethyl-6-(2-(1-methyl-1H-pyrazol-4-yl)morpholino)-8-(piperidin-4-yl)pyrimido[5,4-d]pyrimidin-4 (3H)-one] | 75 to 110 | > 1000 |
| Cc1nc2c(-c3ccc(Cl)cc3F)nc(N3CC(c4cnn(C)c4)OC4(CCC4)C3)nc2c(=O)n1C (stereo not drawn) [Example 90, 8-(4-chloro-2-fluorophenyl)-2,3-dimethyl-6-(6-(1-methyl-1H-pyrazol-4-yl)-5-oxa-8-azaspiro(3,5)nonan-8-yl)pyrimido(5,4-d)pyrimidin-4 (3H)-one] | 75 to 110 | 1 to 10 |
| Cc1nc2c(-c3ccc(Cl)cc3F)nc(N3CCOC(c4cnn(C)n4)C3)nc2c(=O)n1C (stereo not drawn) [Example 91, 8-(4-chloro-2-fluorophenyl)-2,3-dimethyl-6-(2-(2-methyl-2H-1,2,3-triazol-4-yl)morpholino)pyrimido[5,4-d]pyrimidin-4 (3H)-one] | 75 to 110 | 1 to 10 |
| Cc1nc2c(-c3cc(C(F)(F)F)nn3C)nc(N3CCOC(c4cnn(C)c4)C3)nc2c(=O)n1C (stereo not drawn) [Example 99, 2,3-dimethyl-6-(2-(1-methyl-1H-pyrazol-4-yl)morpholino)-8-(1-methyl-3-(trifluoromethyl)-1H-pyrazol-5-yl)pyrimido[5,4-d]pyrimidin-4 (3H)-one] | < 75 | 100 to 1000 |
| Cc1nc2c(-c3ccc(Cl)cc3F)cc(N3CCOC(c4cnn(C)c4)C3)nc2c(=O)n1C (stereo not drawn) [Example 104, 8-(4-chloro-2-fluorophenyl)-2,3-dimethyl-6-(2-(1-methyl-1H-pyrazol-4-yl)morpholino)pyrido[3,2-d]pyrimidin-4 (3H)-one] | 75 to 110 | 100 to 1000 |
| Cc1nc2c(-c3ccc(Cl)cc3F)cc(N3CCOC(c4cnn(C)c4)C3)cc2c(=O)n1C (stereo not drawn) [Example 106, 8-(4-chloro-2-fluorophenyl)-2,3-dimethyl-6-(2-(1-methyl-1H-pyrazol-4-yl)morpholino)quinazolin-4 (3H)-one] | < 75 | 100 to 1000 |
| Cc1nc2c(C34CC(C(F)(F)F)(C3)C4)nc(N3CCO[C@@H](c4cnn(C)c4)C3)nc2c(=O)n1C [Example 113, (S)-2,3-dimethyl-6-(2-(1-methyl-1H-pyrazol-4-yl)morpholino)-8-(3-(trifluoromethyl)bicyclo[1.1.1]pentan-1-yl)pyrimido[5,4-d]pyrimidin-4 (3H)-one] | 75 to 110 | 1 to 10 |
| Cc1cc2c(-c3ccc(Cl)cc3F)nc(N3CCOC(c4cnn(C)c4)C3)nc2c(=O)n1C (stereo not drawn) [Example 114, 4-(4-chloro-2-fluorophenyl)-6,7-dimethyl-2-(2-(1-methyl-1H-pyrazol-4-yl)morpholino)pyrido[3,4-d]pyrimidin-8 (7H)-one] | 75 to 110 | 1 to 10 |
| Cc1nc2c(-c3ccc(Cl)cc3F)nc(N3CC(c4cnn(C)c4)OC(F)(F)C3)nc2c(=O)n1C (stereo not drawn) [Example 115, 8-(4-chloro-2-fluorophenyl)-6-(2,2-difluoro-6-(1-methyl-1H-pyrazol-4-yl)morpholino)-2,3-dimethylpyrimido[5,4-d]pyrimidin-4 (3H)-one] | 75 to 110 | 1 to 10 |
| Cc1nc2c(-c3ccc(Cl)cc3F)nc(N3CC(c4cnn(C)c4)OC4(CC4)C3)c(F)c2c(=O)n1C (stereo not drawn) [Example 157, 8-(4-chloro-2-fluorophenyl)-5-fluoro-2,3-dimethyl-6-(5-(1-methyl-1H-pyrazol-4-yl)-4-oxa-7-azaspiro[2.5]octan-7-yl)pyrido[3,4-d]pyrimidin-4 (3H)-one] | < 75 | 100 to 1000 |
| Cn1cc(C2CN(c3nc(-c4ccc(F)cc4F)c4nc(C(F)(F)F)n(C)c(=O)c4c3F)CC3(CC3)O2)cn1 (stereo not drawn) [Example 158, 8-(2,4-difluorophenyl)-5-fluoro-3-methyl-6-(5-(1-methyl-1H-pyrazol-4-yl)-4-oxa-7-azaspiro[2.5]octan-7-yl)-2-(trifluoromethyl)pyrido[3,4-d]pyrimidin-4 (3H)-one] | < 75 | 100 to 1000 |
| Cn1c(C(F)(F)F)nc2c(-c3ccc(F)cc3F)nc(C3CCOC(c4cnn(C5CC5)c4)C3)c(F)c2c1=O (stereo not drawn) [Example 167, 6-(2-(1-cyclopropyl-1H-pyrazol-4-yl)tetrahydro-2H-pyran-4-yl)-8-(2,4-difluorophenyl)-5-fluoro-3-methyl-2-(trifluoromethyl) pyrido[3,4-d]pyrimidin-4 (3H)-one] | < 75 | 100 to 1000 |
| Cc1cc([C@H]2C[C@@H](c3cc4c(=O)n(C)c(C)nc4c(-c4ccc(F)cc4F)n3)C[C@@H](C)O2)ccn1 [Example 185] | 75 to 110 | 1 to 10 |
| Cn1cc(C2CN(c3nc(-c4ccc(Cl)cc4F)c4ncn(C)c(=O)c4n3)CCO2)cn1 (stereo not drawn) [Example 187, 8-(4-chloro-2-fluorophenyl)-3-methyl-6-(2-(1-methyl-1H-pyrazol-4-yl)morpholino)pyrimido[5,4-d]pyrimidin-4 (3H)-one] | < 75 | 10 to 100 |
| Cc1nc2c(-c3ccc(Cl)cc3F)nc(N3CCn4nc(C(F)(F)F)nc4C3)nc2c(=O)n1C [Example 188, 8-(4-chloro-2-fluorophenyl)-2,3-dimethyl-6-(2-(trifluoromethyl)-5,6-dihydro-[1,2,4]triazolo[1,5-a]pyrazin-7 (8H)-yl)pyrimido[5,4-d]pyrimidin-4 (3H)-one] | < 75 | 10 to 100 |
